Reference: US20220089646A1 (THE UNIVERSITY OF QUEENSLAND, priority 2019, published 2022)
*1 amine or outer side, *2 acyl side, *3 side chain or, on linkers, in order; H or OH if unused. Where a SMILES comes first, the peptide text is derived from it. Bridges are numbered along the chain shown (N, C = ends). [ ]: non-standard residue; d: D form. NHCH2CMe2S = CC(C)(CN[*:1])S[*:2]

What was measured:
Format in all cases: cell-based
[1] = target: DOP (Homo sapiens, UniProt P41143); assay: Inhibition of Forskolin-induced cAMP production in HEK-DOP cells (AlphaScreen, DP series); conditions: for IC50: Forskolin 50 μM/well, 95% CI in brackets; for IC80: approximate IC80, 'EC anything' protocol
Sequence of DOP (P41143 whole entry): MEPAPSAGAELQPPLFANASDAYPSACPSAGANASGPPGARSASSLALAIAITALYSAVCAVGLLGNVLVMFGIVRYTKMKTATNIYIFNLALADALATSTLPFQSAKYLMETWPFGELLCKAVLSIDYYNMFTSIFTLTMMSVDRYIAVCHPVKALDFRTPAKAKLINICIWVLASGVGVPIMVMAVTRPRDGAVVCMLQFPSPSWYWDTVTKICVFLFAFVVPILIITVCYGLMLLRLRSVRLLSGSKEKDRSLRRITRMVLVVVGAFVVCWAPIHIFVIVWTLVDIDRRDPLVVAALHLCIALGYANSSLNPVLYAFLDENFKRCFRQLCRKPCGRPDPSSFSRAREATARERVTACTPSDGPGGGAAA
Experimental: (§1) DP-7-11 and DP-7-12 were assessed for the ability to inhibit cAMP production in HEK-DOP and HEK KOP cells.
(§2) The HEK-293 DOP (HEK-DOP) and HEK-293 KOP (HEK-KOP) cell lines were cultured in a T75 flask, in Dulbeco's Modified Eagle's Medium (DMEM) complete with 10% (v/v) fetal bovine serum (FBS) and 1% (v/v) Geneticin. Cells were incubated in a humidified atmosphere of 37° C. (95% air and 5% CO2). Cells were passaged at 80-90% confluence and media was changed every two days.
(§3) Stimulation buffer and Lysis buffer were prepared fresh on the day of each assay. Stimulation buffer contained 19.5 mL Hanks buffered saline solution, Bovine serum albumin (BSA) 0.1% (w/v), 0.5 mM 3-Isobutyl-1-methylxanthine (IBMX) and 5 mM HEPES (4-(2-hydroxyethyl)-1-piperazineethanesulfonic acid). Lysis buffer contained 19 mL Mili-Q H2O, BSA 0.1% (w/v), 0.3% (v/v) 10% Tween-20, and 5 mM HEPES. Both buffers were adjusted to pH 7.4 with NaOH.
(§4) The cAMP standard dilution series was prepared from the 50 μM cAMP standard solution provided by the cAMP assay kit. The standard solution was vortexed before being serially diluted to provide a concentration range of 5×10^−6 M to 5×10^−11 M in ½ Log intervals.
(§5) For this assay, Forskolin was optimised at 50 μM/well. 25 mM stocks were used to prepare 0.2 mM Forskolin. The concentration of Forskolin prepared was 4 times the required concentration in the well to account for further dilution in the well. 0.1 mM Forskolin solution was then made from this and used to dilute the peptide solutions.
(§6) DP-7-11 and DP-7-12 provided in powder form and reconstituted to 10 mM stock solutions and diluted to 1 mM working stocks using Mili-Q H2O. Each peptide solution was serially diluted to give concentrations of 1×10^−6 to 3×10^−7 M with stimulation buffer.
(§7) Stimulation buffer was added to the 0.2 mM Forskolin solution in a 1:1 ratio to prepare the Forskolin only treatment solution. This was the positive control. Stimulation buffer was used as the negative control.
(§8) Cells were harvested from two T75 flasks on the day of experimentation. Identical protocol was used for both DOP and KOP cells. The cells were first removed from the incubator and washed with Versene®. The cells were then incubated in 2 mL of Versene® at 37° C. for 5 minutes. Following this, the mixture was made up to 5 mL with Versene® in a centrifuge tube. This was centrifuged at 1300 rpm for 2 minutes at 23° C. The supernatant was then decanted and the cells resuspended in 100 μL stimulation buffer for counting. A hemocytometer was used to count the cells. This assay required the concentration of cells to be 13300 cells/μL
(§9) This method was used to conduct all cAMP Alphascreen assays. The acceptor bead mixture consisted of acceptor beads and stimulation buffer mixed according to the ratio 1:35 given in the kit. From this, the acceptor beads mixture was used to prepare separate mixtures for the cAMP standard curve and for the treatment wells of the assay. For the treatment wells, the beads were mixed with cells in a 1:1 ratio. For the cAMP standard curve, the beads were mixed with more stimulation buffer in a 1:1 ratio. The donor bead mixture consisted of donor beads, biotinylated cAMP and lysis buffer mixed in the ratio 1:3:300.
The DP series compounds were assayed as follows: The assay was performed using a 96 well ½ area plate. The different cAMP standard solutions (3 μL/well) were plated in duplicate. The different concentrations of drug (3 μL/well), and control solutions (3 μL/well) were plated in triplicate. Following this, the acceptor bead mixture (3 μL/well) was added to the respective sets—either cAMP standard curve or the treatment. This was covered and incubated on the orbital shaker for 30 minutes at room temperature. Then, the donor bead mixture (10 μL/well) was added to each well. This was incubated at room temperature overnight on the orbital shaker. […]

[2] = target: KOP (Homo sapiens, UniProt P41145); assay: Inhibition of Forskolin-induced cAMP production in HEK-KOP cells (AlphaScreen, DP series); conditions: for IC80: approximate IC80, 'EC anything' protocol; for cAMP response, HEK-KOP: concentration-response curve, % cAMP
Sequence of KOP (P41145 whole entry): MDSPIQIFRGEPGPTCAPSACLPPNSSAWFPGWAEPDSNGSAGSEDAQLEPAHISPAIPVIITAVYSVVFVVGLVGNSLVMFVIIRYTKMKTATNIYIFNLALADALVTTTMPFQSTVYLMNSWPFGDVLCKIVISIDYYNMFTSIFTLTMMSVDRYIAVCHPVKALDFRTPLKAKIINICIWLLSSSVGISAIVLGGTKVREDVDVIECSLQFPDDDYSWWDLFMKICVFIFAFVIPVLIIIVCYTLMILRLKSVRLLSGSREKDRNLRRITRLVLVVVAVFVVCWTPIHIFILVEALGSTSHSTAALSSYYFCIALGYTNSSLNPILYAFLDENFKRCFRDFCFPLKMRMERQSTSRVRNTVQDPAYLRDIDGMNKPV
Experimental: as §1, §2, §3, §4, §5, §6, §7, §8, §9
The DP series compounds were assayed as follows: The assay was performed using a 96 well ½ area plate. The different cAMP standard solutions (3 μL/well) were plated in duplicate. The different concentrations of drug (3 μL/well), and control solutions (3 μL/well) were plated in triplicate. […]

[3] = target: MOP (Homo sapiens, UniProt P35372); assay: In vitro cAMP activity at MOP (Table 10); conditions: cAMP inhibition, four-parameter regression
Sequence of MOP (P35372 whole entry): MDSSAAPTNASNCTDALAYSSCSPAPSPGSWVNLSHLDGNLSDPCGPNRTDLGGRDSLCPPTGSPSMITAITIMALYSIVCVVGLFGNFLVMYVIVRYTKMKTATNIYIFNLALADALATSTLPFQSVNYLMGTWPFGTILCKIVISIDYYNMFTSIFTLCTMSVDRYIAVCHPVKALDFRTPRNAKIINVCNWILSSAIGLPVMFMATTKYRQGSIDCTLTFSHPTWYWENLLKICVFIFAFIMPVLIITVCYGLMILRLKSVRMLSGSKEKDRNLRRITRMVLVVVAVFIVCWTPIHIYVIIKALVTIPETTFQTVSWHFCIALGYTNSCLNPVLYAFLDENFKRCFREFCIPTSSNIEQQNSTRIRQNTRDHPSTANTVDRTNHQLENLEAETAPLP
Experimental: The CP series compounds were assayed as follows: The assay was performed using a 96 well ½ area plate. The different cAMP standard solutions (3 μL/well) were plated in duplicate. The different concentrations of drug (3 μL/well), and control solutions (3 μL/well) were plated in triplicate. Following this, the acceptor bead mixture (3 μL/well) was added to the respective sets—either cAMP standard curve or the treatment. This was covered and incubated on the orbital shaker for 60 minutes at 37° C. Then, the donor bead mixture (10 μL/well) was added to each well. This was incubated at room temperature overnight on the orbital shaker.
For DP-11-06 the assay was carried out in the same way as for the CP compounds except it was incubated for 30 mins at 37° C.
For the CP series compounds and DP-11-06, the Ensight® Multimode Plate Reader was used to quantify the fluorescence units of each plate. Before reading, each plate was centrifuged at 280 g for 30 seconds. Using GraphPad Prism7® Software, cAMP concentrations were determined by fit spline/LOWESS analysis. The cAMP standard curve was used for interpolation at this point. The cAMP concentrations were then normalized to the highest cAMP concentration recorded and analyzed by one-way ANOVA for multiple comparisons. The IC50 for each compound was then calculated using GraphPad Prism7® with non-linear regression analysis using four parameter curve fitting.
In this regard, a different regression analysis method was adopted on the above cAMP experiments. Particularly, a new non-linear regression (four-parameter) was adopted to better account for hill slope, thereby improving the regression fit.

[4] = concentration-response curve, % cAMP

With `CC1(C)CNC(=O)C[C@@H](NC(=O)[C@@H](N)Cc2ccc(O)cc2)C(=O)NCC(=O)N[C@@H](Cc2ccccc2)C(=O)N[C@H](C(=O)N[C@@H](CCCNC(=N)N)C(=O)N[C@@H](CCCNC(=N)N)C(N)=O)CSS1` [DP-7-12, c(Tyr-D(Asp)-Gly-Phe-SSa-Arg-Arg)] (H-Y[dD]GFCRR-NH2; linker 2-5 via NHCH2CMe2S) the IC50 [1] was 0.608 nM, the IC80 [1] was 2.72 nM and the “Potency at DOP relative to KOP” value ([1]; cAMP IC50 DOP vs KOP) was “ten times”. For the same compound, the “Maximum cAMP response, HEK-DOP” value [1, 4] was 14.03%, the IC80 [2] was 28.8 nM and the “cAMP response, HEK-KOP” value [2] was 25.88%. It also gave an EC50 [3] of 2.7 nM.

For `CC1(C)CNC(=O)C[C@H](C(=O)N[C@@H](CCCNC(=N)N)C(=O)N[C@@H](CCCNC(=N)N)C(N)=O)NC(=O)[C@H](Cc2ccccc2)NC(=O)CNC(=O)[C@@H](NC(=O)[C@@H](N)Cc2ccc(O)cc2)CSS1` [DP-7-11, c(Tyr-SSa-Gly-Phe-D(Asp)-Arg-Arg)], the IC50 [1] was 1.83 nM, the IC80 [1] was 24.1 nM and the “Maximum cAMP response, HEK-DOP” value [1, 4] was 93.79%. The “Minimum cAMP response, HEK-DOP” value [1, 4] was 23.13%, the IC50 ([2]; Forskolin 50 μM/well, 95% CI in brackets) was 5.06 nM and the IC80 [2] was 30 nM. The “cAMP response, HEK-KOP” value [2] was 13.73% and the EC50 [3] was over 10000 nM.
